These results are taken from article PMC3961306, “Comparison of the Cancer Gene Targeting and Biochemical Selectivities of All Targeted Kinase Inhibitors Approved for Clinical Use” (PLoS ONE, 2014).

Assay in all cases: Kinase profiling in a biochemical assay panel (mobility shift assays and ELISA), %-inhibition at 1 μM; selectivity entropy
Assay [1] has as its target panel of more than 300 wild-type and mutant kinases (313 kinase panel) (Homo sapiens, UniProt P00533, T790M). To be noted: kinase EGFR(T790M); compound at 1 μM.
For assay [2], the target named is panel of more than 300 wild-type and mutant kinases (313 kinase panel) (Homo sapiens, UniProt P09619). Particulars: kinase PDGFRβ; 1 μM.
For assay [3], the target named is panel of more than 300 wild-type and mutant kinases (313 kinase panel) (Homo sapiens, UniProt Q9UM73, R1275Q). Particulars: kinase ALK(R1275Q); 1 μM compound.
Assay [4] deals with panel of more than 300 wild-type and mutant kinases (313 kinase panel) (Homo sapiens, UniProt P07947, T348I). Particulars: kinase YES(T348I); compound at 1 μM.
For assay [5], the target named is panel of more than 300 wild-type and mutant kinases (313 kinase panel) (Homo sapiens, UniProt P11362, V561M). To be noted: kinase FGFR1(V561M); compound at 1 μM.
Assay [6] concerns the target panel of more than 300 wild-type and mutant kinases (313 kinase panel) (Homo sapiens, UniProt P15056).
Assay [7] has as its target panel of more than 300 wild-type and mutant kinases (313 kinase panel) (Homo sapiens, UniProt P15056, V600E).
For assay [8], the target named is panel of more than 300 wild-type and mutant kinases (313 kinase panel) (Homo sapiens, UniProt Q15418).
The target of assay [9] is panel of more than 300 wild-type and mutant kinases (313 kinase panel) (Homo sapiens, UniProt P00519). To be noted: 1 µM.
Assay [10] concerns the target panel of more than 300 wild-type and mutant kinases (313 kinase panel) (Homo sapiens, UniProt P35968).
Assay [11] concerns the target T1, panel of more than 300 wild-type and mutant kinases (313 kinase panel) (Homo sapiens, UniProt Q06418).
T1 sequence (Q06418 41-890): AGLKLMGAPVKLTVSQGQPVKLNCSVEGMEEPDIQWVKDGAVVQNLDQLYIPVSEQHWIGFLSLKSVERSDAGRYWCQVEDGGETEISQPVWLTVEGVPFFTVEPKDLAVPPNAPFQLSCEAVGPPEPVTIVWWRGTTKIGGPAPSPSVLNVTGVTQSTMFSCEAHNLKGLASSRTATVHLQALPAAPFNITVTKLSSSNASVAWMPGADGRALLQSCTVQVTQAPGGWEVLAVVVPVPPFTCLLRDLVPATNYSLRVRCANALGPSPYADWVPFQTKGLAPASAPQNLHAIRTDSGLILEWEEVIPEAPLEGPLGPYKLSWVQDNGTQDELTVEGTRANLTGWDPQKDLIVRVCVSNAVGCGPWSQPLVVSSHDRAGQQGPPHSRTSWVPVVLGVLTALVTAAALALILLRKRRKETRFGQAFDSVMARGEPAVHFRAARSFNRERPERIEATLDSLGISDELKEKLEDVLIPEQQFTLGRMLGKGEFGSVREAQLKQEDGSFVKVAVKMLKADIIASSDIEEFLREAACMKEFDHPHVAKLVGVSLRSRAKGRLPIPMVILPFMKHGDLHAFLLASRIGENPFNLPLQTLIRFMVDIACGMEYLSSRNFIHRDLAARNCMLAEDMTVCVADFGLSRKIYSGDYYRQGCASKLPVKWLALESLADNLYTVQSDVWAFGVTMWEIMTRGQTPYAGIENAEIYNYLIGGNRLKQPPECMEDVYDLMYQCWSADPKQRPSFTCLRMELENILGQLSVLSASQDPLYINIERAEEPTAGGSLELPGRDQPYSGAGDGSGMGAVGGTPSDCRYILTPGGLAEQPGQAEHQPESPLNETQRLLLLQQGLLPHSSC

The target of assay [12] is panel of more than 300 wild-type and mutant kinases (313 kinase panel) (Homo sapiens, UniProt P00533, L858R/T790M).
Assay [13] has as its target panel of more than 300 wild-type and mutant kinases (313 kinase panel) (Homo sapiens, UniProt P00533).
The target in assay [14] is panel of more than 300 wild-type and mutant kinases (313 kinase panel) (Homo sapiens, UniProt P00533, L858R).
Setting [15] is: kinase BRAF(V600E), 1 μM compound.
[16] abbreviates: kinase EGFR(T790M/L858R), compound at 1 μM.
Where [17] appears, read: kinase EGFR(L858R), compound at 1 μM.

`COc1cc(Nc2c(C#N)cnc3cc(OCCCN4CCN(C)CC4)c(OC)cc23)c(Cl)cc1Cl` [bosutinib]: the “%-inhibition of EGFR(T790M)” value in assay [1] is recorded as 87%. For the same compound, in assay [2], the “%-inhibition of PDGFRβ” value was 95%. Also, in assay [3], the “%-inhibition, ALK(R1275Q)” value amounted to 61%.
Consider `C[C@@H](Oc1cc(-c2cnn(C3CCNCC3)c2)cnc1N)c1c(Cl)ccc(F)c1Cl` [crizotinib], for which, in [4], the “%-inhibition of YES(T348I)” value worked out at 93%. The “%-inhibition of PDGFRβ” value in assay [2] stood at 18%. Also, the “%-inhibition of FGFR1(V561M)” value in assay [5] stood at 26%. For the same compound, in assay [6] (kinase BRAF, 1 μM compound), the “%-inhibition, BRAF” value is 12%. For the same compound, in [7] (setting [15]), the “%-inhibition, BRAF(V600E)” value is given as 10%. In addition, the “%-inhibition of RSK1” value in assay [8] (kinase RSK1, 1 μM) is on record as -5%.
On to `CC(C)(C)c1nc(-c2cccc(NS(=O)(=O)c3c(F)cccc3F)c2F)c(-c2ccnc(N)n2)s1` [dabrafenib], for which the “%-inhibition of FGFR1(V561M)” value in assay [5] is -0.282%.
On to `C#Cc1cccc(Nc2ncnc3cc(OCCOC)c(OCCOC)cc23)c1` [erlotinib], for which the “%-inhibition, ABL” value in [9] is given as 64%. Moreover, the “%-inhibition, BRAF” value in assay [6] (1 µM) was found to be 14%. The “%-inhibition, BRAF(V600E)” value in [7] (1 µM) is 8%. The “%-inhibition of KDR” value in [10] (1 µM) came out at 74%. The “%-inhibition of TYRO3” value in assay [11] (1 µM) was 20%. Further, in assay [8] (1 µM), the “%-inhibition of RSK1” value was found to be 9%.
`CO[C@H]1C[C@@H]2CC[C@@H](C)[C@@](O)(O2)C(=O)C(=O)N2CCCC[C@H]2C(=O)O[C@H]([C@H](C)C[C@@H]2CC[C@@H](OCCO)[C@H](OC)C2)CC(=O)[C@H](C)/C=C(\C)[C@@H](O)[C@@H](OC)C(=O)[C@H](C)C[C@H](C)/C=C/C=C/C=C/1C` [everolimus]: the “%-inhibition of EGFR(T790M/L858R)” value in assay [12] (setting [16]) was -5%. In addition, in assay [4], the “%-inhibition of YES(T348I)” value is given as -0.414%. Further, the “%-inhibition of PDGFRβ” value in assay [2] was -3.52%. Besides, in assay [5], the “%-inhibition of FGFR1(V561M)” value is reported as -12%. In assay [6] (kinase BRAF, 1 μM compound), the “%-inhibition, BRAF” value is given as -6.54%. Also, the “%-inhibition, BRAF(V600E)” value in [7] (setting [15]) was found to be 2%. Also, the “%-inhibition of KDR” value in assay [10] (kinase KDR, compound at 1 μM) is -6.38%. In addition, the “%-inhibition of TYRO3” value in [11] (kinase TYRO3, compound at 1 μM) is listed as -2.32%. The “%-inhibition of RSK1” value in assay [8] (kinase RSK1, 1 μM) is on record as -13%. The “%-inhibition, ALK(R1275Q)” value in assay [3] is -4.29%.
On to `Cc1cn(-c2cc(NC(=O)c3ccc(C)c(Nc4nccc(-c5cccnc5)n4)c3)cc(C(F)(F)F)c2)cn1` [nilotinib], for which the “%-inhibition of EGFR” value in [13] (kinase EGFR, compound at 1 μM) is recorded as 17%. The “%-inhibition of EGFR(L858R)” value in assay [14] (setting [17]) is listed as 30%. Further, the “%-inhibition of EGFR(T790M)” value in assay [1] came out at 7.54%. Also, the “%-inhibition of KDR” value in assay [10] (kinase KDR, compound at 1 μM) was 22%. For the same compound, the “%-inhibition of TYRO3” value in [11] (1 µM) is reported as -32%. Also, the “%-inhibition of RSK1” value in [8] (kinase RSK1, 1 μM) came out at 22%.
For `Cc1ccc(Nc2nccc(N(C)c3ccc4c(C)n(C)nc4c3)n2)cc1S(N)(=O)=O` [pazopanib], the “%-inhibition of EGFR” value in assay [13] (kinase EGFR, compound at 1 μM) is recorded as 17%. Besides, in [14] (setting [17]), the “%-inhibition of EGFR(L858R)” value was found to be 36%. For the same compound, the “%-inhibition of EGFR(T790M/L858R)” value in [12] (setting [16]) was determined as 43%. Also, in assay [1], the “%-inhibition of EGFR(T790M)” value stood at 5%. The “%-inhibition of PDGFRβ” value in assay [2] is on record as 96%. Also, the “%-inhibition of TYRO3” value in assay [11] (kinase TYRO3, compound at 1 μM) is on record as 27%. Moreover, the “%-inhibition of RSK1” value in [8] (kinase RSK1, 1 μM) worked out at 16%.
Take `Cc1ccc(C(=O)Nc2ccc(CN3CCN(C)CC3)c(C(F)(F)F)c2)cc1C#Cc1cnc2cccnn12` [ponatinib]: the “%-inhibition of EGFR” value in [13] (1 µM) was found to be 97%. In [14] (1 µM), the “%-inhibition of EGFR(L858R)” value worked out at 95%. Further, the “%-inhibition of EGFR(T790M/L858R)” value in [12] (1 µM) came to 49%. The “%-inhibition of YES(T348I)” value in [4] is 96%. Moreover, the “%-inhibition of PDGFRβ” value in assay [2] is recorded as 102%. In assay [5], the “%-inhibition of FGFR1(V561M)” value worked out at 98%. The “%-inhibition, BRAF” value in assay [6] (kinase BRAF, 1 μM compound) turned out to be 89%. Also, the “%-inhibition, BRAF(V600E)” value in [7] (setting [15]) is on record as 84%. Moreover, the “%-inhibition of TYRO3” value in assay [11] (kinase TYRO3, compound at 1 μM) worked out at 45%. Further, the “%-inhibition of RSK1” value in assay [8] (kinase RSK1, 1 μM) was found to be 32%. The “%-inhibition, ALK(R1275Q)” value in [3] was 45%.
Consider `CCN(CC)CCNC(=O)c1c(C)[nH]c(/C=C2\C(=O)Nc3ccc(F)cc32)c1C` [sunitinib], for which the “%-inhibition of TYRO3” value in [11] (kinase TYRO3, compound at 1 μM) was 98%.
`CO[C@H]1C[C@@H]2CC[C@@H](C)[C@@](O)(O2)C(=O)C(=O)N2CCCC[C@H]2C(=O)O[C@H]([C@H](C)C[C@@H]2CC[C@@H](OC(=O)C(C)(CO)CO)[C@H](OC)C2)CC(=O)[C@H](C)/C=C(\C)[C@@H](O)[C@@H](OC)C(=O)[C@H](C)C[C@H](C)/C=C/C=C/C=C/1C` [temsirolimus]: in [12] (setting [16]), the “%-inhibition of EGFR(T790M/L858R)” value was -2.75%. In addition, the “%-inhibition of YES(T348I)” value in [4] is reported as -0.177%. Moreover, in assay [2], the “%-inhibition of PDGFRβ” value is -2.27%. For the same compound, in assay [5], the “%-inhibition of FGFR1(V561M)” value was -9%. Also, the “%-inhibition, BRAF” value in assay [6] (kinase BRAF, 1 μM compound) is -3.36%. Further, in assay [7] (setting [15]), the “%-inhibition, BRAF(V600E)” value is reported as -0.864%. Moreover, the “%-inhibition of KDR” value in assay [10] (kinase KDR, compound at 1 μM) is -7%. Further, the “%-inhibition of TYRO3” value in assay [11] (kinase TYRO3, compound at 1 μM) is -1.34%. The “%-inhibition of RSK1” value in assay [8] (kinase RSK1, 1 μM) is -6.45%. Further, in [3], the “%-inhibition, ALK(R1275Q)” value was -1.39%.
For the compound `CC(=O)Nc1cccc(-n2c(=O)n(C3CC3)c(=O)c3c(Nc4ccc(I)cc4F)n(C)c(=O)c(C)c32)c1` [trametinib], the “%-inhibition of EGFR(T790M/L858R)” value in assay [12] (setting [16]) is -6.51%. The “%-inhibition of YES(T348I)” value in assay [4] was -2.82%. Besides, the “%-inhibition of PDGFRβ” value in assay [2] is 3.44%. In assay [5], the “%-inhibition of FGFR1(V561M)” value is on record as -3.3%. Moreover, in assay [6] (kinase BRAF, 1 μM compound), the “%-inhibition, BRAF” value worked out at 78%. The “%-inhibition, BRAF(V600E)” value in assay [7] (setting [15]) is given as 37%. In addition, the “%-inhibition of KDR” value in [10] (kinase KDR, compound at 1 μM) is -0.549%. For the same compound, in assay [11] (kinase TYRO3, compound at 1 μM), the “%-inhibition of TYRO3” value is reported as -2.65%. For the same compound, the “%-inhibition of RSK1” value in assay [8] (kinase RSK1, 1 μM) is -10%. Further, the “%-inhibition, ALK(R1275Q)” value in assay [3] is recorded as -1.83%.
As to `COc1cc2c(Nc3ccc(Br)cc3F)ncnc2cc1OCC1CCN(C)CC1` [vandetanib], the “%-inhibition of YES(T348I)” value in assay [4] stood at 100%. Also, the “%-inhibition, BRAF” value in assay [6] (kinase BRAF, 1 μM compound) is 24%. In addition, the “%-inhibition, BRAF(V600E)” value in assay [7] (setting [15]) is on record as 18%. Moreover, the “%-inhibition of TYRO3” value in assay [11] (kinase TYRO3, compound at 1 μM) is 94%.
